# Results taken from ChEMBL document CHEMBL1156447, “Cyanidin-3-rutinoside, a natural polyphenol antioxidant, selectively kills leukemic cells by induction of oxidative stress” (J Biol Chem, 2007).
# Active and inactive are the calls of the source. No cut-off for these calls is given here.
# Experiments:
# HL-60 [1] = assay: Increase in hydrogen peroxide accumulation in human HL60 cells at 80 uM by flow cytometry; format: functional, cell-based
# HL-60 [2] = assay: Suppression of induction of apoptosis in human HL60 cells at 60 uM after 18 hrs in presence of DEVD-CHO; format: functional, cell-based
# HL-60 [3] = assay: Induction of apoptosis in human HL60 cells overexpressing human Bcl XL after 18 hrs by Hoechst staining; format: functional, cell-based
# [4] = biological target: T1, MAP kinase p38 (Homo sapiens) (UniProt O15264+Q15759+Q16539+P53778); assay: Increase in p38 MAPK phosphorylation in catalase pretreated human HL60 cells at 80 uM after 8 hrs by immunoblot analysis; format: cell-based; settings: HL-60
# HL-60 [5] = assay: Suppression of induction of apoptosis in human HL60 cells assessed as inhibition of mitochondrial release of cytochrome c at 80 uM after 18 hrs […] in presence of SP600125; format: functional, cell-based
# HL-60 [6] = assay: Induction of apoptosis in human HL60 cells assessed as caspase 3 activation; format: functional, cell-based
# HL-60 [7] = assay: Suppression of induction of apoptosis in human HL60 cells at 80 uM after 18 hrs by Hoechst staining in presence of SP600125; format: functional, cell-based
# HL-60 [8] = assay: Increase in intracellular hydrogen peroxide level in human HL60 cells after 1 hr by phenol red method; format: functional, cell-based
# CCRF-CEM [9] = assay: Suppression of induction of apoptosis in human CCRF-CEM cells at 80 uM after 24 hrs by Hoechst staining in presence of SB-203580; format: functional, cell-based
# [10] = biological target: Apoptosis regulator BAX (Homo sapiens) (UniProt Q07812); assay: Activation of Bax in human HL60 cells assessed as mitochondrial translocation at 80 uM after 8 hrs by immunostaining; settings: HL-60
# [11] = biological target: T1, MAP kinase p38 (Homo sapiens); assay: Increase in p38 MAPK phosphorylation in human HL60 cells at 80 uM after 8 hrs by immunoblot analysis; format: cell-based; settings: HL-60
# CCRF-CEM [12] = assay: Suppression of induction of apoptosis in human CCRF-CEM cells at 80 uM after 24 hrs by Hoechst staining in presence of N-acetyl-cysteine; format: functional, cell-based
# HL-60 [13] = assay: Induction of apoptosis in human HL60 cells after 18 hrs by Hoechst 33258 staining; format: functional, cell-based
# [14] = biological target: T2, c-Jun N-terminal kinase, JNK (Homo sapiens) (UniProt P45983+P53779+P45984); assay: Increase in JNK catalase pretreated human HL60 cells at 80 uM after 8 hrs by immunoblot analysis; format: cell-based; settings: HL-60
# HL-60 [15] = assay: Suppression of induction of apoptosis in human HL60 cells at 60 uM after 18 hrs in presence of Z-VAD; format: functional, cell-based
# HL-60 [16] = assay: Suppression of induction of apoptosis in human HL60 cells assessed as inhibition of mitochondrial release of Smac at 80 uM after 18 hrs […] in presence of SP600125; format: functional, cell-based
# [17] = biological target: T1, MAP kinase p38 (Homo sapiens); assay: Increase in p38 MAPK phosphorylation in N-acetyl-cysteine pretreated human HL60 cells at 80 uM after 2 hrs by immunoblot analysis; settings: HL-60
# CCRF-CEM [18] = assay: Induction of apoptosis in human CCRF-CEM cells expressing shRNA against Bim at 80 uM after 24 hrs by Hoechst staining; format: functional, cell-based
# HL-60 [19] = assay: Suppression of induction of apoptosis in human HL60 cells at 80 uM after 18 hrs by Hoechst staining in presence of SB-203580; format: functional, cell-based
# PBMC = assay: Antioxidant activity in human PBMC assessed as reduction in intracellular peroxide levels by flow cytometry; format: functional, cell-based
# CCRF-CEM [20] = assay: Induction of apoptosis in human CCRF-CEM cells after 18 hrs by Hoechst staining; format: functional, cell-based
# HL-60 [21] = assay: Induction of apoptosis in human HL60 cells assessed as cytochrome c release at 80 uM by immunoblot analysis; format: functional, cell-based
# HL-60 [22] = assay: Suppression of induction of apoptosis in human HL60 cells assessed as inhibition of mitochondrial release of Smac at 80 uM after 18 hrs […] in presence of SB-203580; format: functional, cell-based
# [23] = biological target: T2, c-Jun N-terminal kinase, JNK (Homo sapiens); assay: Increase in JNK phosphorylation in N-acetyl-cysteine pretreated human HL60 cells at 80 uM after 8 hrs by immunoblot analysis; format: cell-based; settings: HL-60
# HL-60 [24] = assay: Induction of apoptosis in human HL60 cells assessed as Smac release at 80 uM by immunoblot analysis; format: functional, cell-based
# HL-60 [25] = assay: Induction of apoptosis in human HL60 cells overexpressing human Bcl2 after 18 hrs by Hoechst staining; format: functional, cell-based
# CCRF-CEM [26] = assay: Suppression of induction of apoptosis in human CCRF-CEM cells at 80 uM after 24 hrs by Hoechst staining in presence of catalase; format: functional, cell-based
# HL-60 [27] = assay: Suppression of induction of apoptosis in human HL60 cells at 80 uM after 18 hrs by Hoechst staining in presence of hydrogen peroxide; format: functional, cell-based
# Daudi = assay: Induction of apoptosis in human Daudi cells after 18 hrs by Hoechst staining; format: functional, cell-based
# [28] = biological target: Bcl-2-like protein 11 (Homo sapiens) (UniProt O43521); assay: Increase in Bim EL phosphorylation in human HL60 cells at 80 uM after 8 hrs by immunoblot analysis; format: cell-based; settings: HL-60
# HL-60 [29] = assay: Suppression of induction of apoptosis in human HL60 cells at 80 uM after 18 hrs by Hoechst staining in presence of catalase; format: functional, cell-based
# HL-60 [30] = assay: Suppression of induction of apoptosis in human HL60 cells assessed as inhibition of mitochondrial release of cytochrome c at 80 uM after 18 hrs […] in presence of SB-203580; format: functional, cell-based
# MOLT-4 = assay: Induction of apoptosis in human MOLT4 cells after 18 hrs by Hoechst staining; format: functional, cell-based
# [31] = Antioxidant activity assessed as inhibition of peroxyl radical production; format: functional
# HL-60 [32] = assay: Induction of apoptosis in human HL60 cells assessed as caspase 9 activation; format: functional, cell-based
# [33] = Antioxidant activity in Ti(IV)-hydrogen peroxide complex system assessed as inhibition of hydrogen peroxide production; format: functional
# [34] = Antioxidant activity assessed as inhibition of superoxide production; format: functional
# HL-60 [35] = assay: Suppression of induction of apoptosis in human HL60 cells at 80 uM after 18 hrs by Hoechst staining in presence of N-acetyl-cysteine; format: functional, cell-based
# [36] = biological target: T2, c-Jun N-terminal kinase, JNK (Homo sapiens); assay: Increase in JNK phosphorylation in human HL60 cells at 80 uM after 8 hrs by immunoblot analysis; format: cell-based; settings: HL-60
# [37] = biological target: T3, Bcl-2 homologous antagonist/killer (Homo sapiens) (UniProt Q16611); assay: Activation of Bak in human HL60 cells assessed as oligomerization and conformational change at 80 uM after 8 hrs by immunostaining; format: functional, cell-based; settings: HL-60
# T3 sequence (whole entry): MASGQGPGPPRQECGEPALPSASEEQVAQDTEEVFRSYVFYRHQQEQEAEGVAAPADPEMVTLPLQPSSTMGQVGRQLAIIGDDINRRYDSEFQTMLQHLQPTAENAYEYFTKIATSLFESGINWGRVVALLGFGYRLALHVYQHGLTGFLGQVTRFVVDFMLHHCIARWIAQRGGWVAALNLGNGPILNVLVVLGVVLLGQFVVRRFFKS
# HL-60 [38] = assay: Induction of apoptosis in human HL60 cells at 60 uM by Hoechst 33258 staining; format: functional, cell-based; settings: TDE = time-dependent effect
# Chain of Bcl-2-like protein 11 (Homo sapiens) (O43521 whole entry, looked up): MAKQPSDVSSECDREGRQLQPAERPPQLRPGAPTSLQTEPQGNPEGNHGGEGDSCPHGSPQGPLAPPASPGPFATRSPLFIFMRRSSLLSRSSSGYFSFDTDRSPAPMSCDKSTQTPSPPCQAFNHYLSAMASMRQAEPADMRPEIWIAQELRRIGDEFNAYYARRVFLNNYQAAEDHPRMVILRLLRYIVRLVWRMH
# Chain of Apoptosis regulator BAX (Homo sapiens) (Q07812 whole entry): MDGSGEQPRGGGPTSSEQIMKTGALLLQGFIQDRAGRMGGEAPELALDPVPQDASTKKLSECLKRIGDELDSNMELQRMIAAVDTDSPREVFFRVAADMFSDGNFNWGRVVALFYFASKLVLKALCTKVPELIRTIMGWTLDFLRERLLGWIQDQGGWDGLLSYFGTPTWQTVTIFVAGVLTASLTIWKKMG
smiles,measurement,setting,value
C[C@@H]1O[C@@H](OC[C@H]2O[C@@H](Oc3cc4c(O)cc(O)cc4[o+]c3-c3ccc(O)c(O)c3)[C@H](O)[C@@H](O)[C@@H]2O)[C@H](O)[C@H](O)[C@H]1O,Activity,HL-60 [1],Active
same,Activity,HL-60 [2],Active
same,Activity,HL-60 [3],inactive
same,Activity,[4],inactive
same,Activity,HL-60 [5],Active
same,Activity,HL-60 [6],Dose-dependent effect
same,Activity,HL-60 [7],Active
same,Activity,HL-60 [8],Active
same,Activity,CCRF-CEM [9],Active
same,Activity,[10],Active
same,Activity,[11],Active
same,Activity,CCRF-CEM [12],Active
same,Activity,HL-60 [13],Dose-dependent effect
same,Activity,[14],inactive
same,Activity,HL-60 [15],Active
same,Activity,HL-60 [16],Active
same,Activity,[17],inactive
same,Activity,CCRF-CEM [18],inactive
same,Activity,HL-60 [19],Active
same,Activity,PBMC,Active
same,Activity,CCRF-CEM [20],Active
same,Activity,HL-60 [21],Active
same,Activity,HL-60 [22],Active
same,Activity,[23],inactive
same,Activity,HL-60 [24],Active
same,Activity,HL-60 [25],inactive
same,Activity,CCRF-CEM [26],Active
same,Activity,HL-60 [27],Active
same,Activity,Daudi,Active
same,Activity,[28],Active
same,Activity,HL-60 [29],Active
same,Activity,HL-60 [30],Active
same,Activity,MOLT-4,Active
same,Activity,[31],Active
same,Activity,HL-60 [32],Dose-dependent effect
same,Activity,[33],Dose-dependent effect
same,Activity,[34],Active
same,Activity,HL-60 [35],Active
same,Activity,[36],Active
same,Activity,[37],Active
same,Activity,HL-60 [38],tde
